Measurements taken from patent US10059688B2, “Protein tyrosine kinase modulators and methods of use” (BETTA PHARMACEUTICALS CO., LTD., priority 2013, dated 2018).

Legend:
EGFR (h) = EGFR (h) (Homo sapiens (Human), UniProt P00533); assay: Kinase assay, single dose inhibition (Millipore, 33P-ATP filter binding); format: biochemical; settings: 0.1 μM test compound, 10 μM ATP; remaining activity relative to DMSO control = 100%
Protocol: (§1) Assay conditions included 10 μM ATP and 100 nM test compounds.
(§2) All reactions are initiated by the addition of the MgATP mix. After incubation for 40 minutes at room temperature, the reaction is stopped by the addition of 3% phosphoric acid solution. 10 μL of the reaction is then spotted onto a P30 filtermat and washed three times for 5 minutes in 75 mM phosphoric acid and once in methanol prior to drying and scintillation counting. This assay is performed by Millipore. The experiment is carried out in duplicate. The value for the control sample (DMSO) was set to 100%, and the values for the compound-treated samples were expressed as activity relative to the control sample.

ALK (h) = ALK (h) (Homo sapiens (Human), UniProt Q9UM73); assay: as above; format: biochemical; settings: 0.1 μM test compound, 10 μM ATP, remaining activity relative to DMSO control = 100%
EGFR (L858R) (h) = EGFR (L858R) (h) (Homo sapiens (Human), UniProt P00533, L858R); assay: as above; format: biochemical; settings: 0.1 μM test compound, 10 μM ATP; remaining activity relative to DMSO control = 100%
Sequence of EGFR (L858R) (h) (P00533 25-1210 L858R): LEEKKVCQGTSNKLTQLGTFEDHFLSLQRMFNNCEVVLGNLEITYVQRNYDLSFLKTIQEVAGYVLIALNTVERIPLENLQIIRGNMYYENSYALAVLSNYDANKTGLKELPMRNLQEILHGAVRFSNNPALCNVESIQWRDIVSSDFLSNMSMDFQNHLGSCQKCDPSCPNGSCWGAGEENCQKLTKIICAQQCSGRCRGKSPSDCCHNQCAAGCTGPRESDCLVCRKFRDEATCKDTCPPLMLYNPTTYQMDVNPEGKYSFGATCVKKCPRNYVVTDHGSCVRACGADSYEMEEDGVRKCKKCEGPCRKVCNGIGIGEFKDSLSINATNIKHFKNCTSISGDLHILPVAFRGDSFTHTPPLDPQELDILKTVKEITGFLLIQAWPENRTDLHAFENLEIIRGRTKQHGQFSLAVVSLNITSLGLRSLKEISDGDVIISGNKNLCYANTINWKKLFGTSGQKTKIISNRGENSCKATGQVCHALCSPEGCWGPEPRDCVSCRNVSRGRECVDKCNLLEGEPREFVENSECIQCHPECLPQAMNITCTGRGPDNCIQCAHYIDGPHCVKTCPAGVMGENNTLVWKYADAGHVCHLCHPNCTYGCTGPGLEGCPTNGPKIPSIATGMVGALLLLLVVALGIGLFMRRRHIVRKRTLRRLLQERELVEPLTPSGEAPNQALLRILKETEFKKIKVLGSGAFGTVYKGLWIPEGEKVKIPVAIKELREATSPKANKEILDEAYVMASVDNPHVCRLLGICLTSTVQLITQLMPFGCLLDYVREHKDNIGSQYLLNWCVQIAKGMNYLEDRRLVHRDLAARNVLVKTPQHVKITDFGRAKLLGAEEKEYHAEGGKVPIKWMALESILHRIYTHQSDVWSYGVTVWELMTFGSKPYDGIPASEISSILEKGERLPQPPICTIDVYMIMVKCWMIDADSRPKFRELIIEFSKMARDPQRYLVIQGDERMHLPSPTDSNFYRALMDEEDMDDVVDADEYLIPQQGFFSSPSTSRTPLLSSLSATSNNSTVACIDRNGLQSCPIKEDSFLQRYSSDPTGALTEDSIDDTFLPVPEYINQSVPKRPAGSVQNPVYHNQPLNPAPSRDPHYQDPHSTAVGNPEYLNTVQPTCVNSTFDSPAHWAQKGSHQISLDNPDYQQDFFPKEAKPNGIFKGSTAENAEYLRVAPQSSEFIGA

EGFR (T790M) (h) = EGFR (T790M) (h) (Homo sapiens (Human), UniProt P00533, T790M); assay: as above; format: biochemical; settings: 0.1 μM test compound, 10 μM ATP; remaining activity relative to DMSO control = 100%
Sequence of EGFR (T790M) (h) (P00533 25-1210 T790M): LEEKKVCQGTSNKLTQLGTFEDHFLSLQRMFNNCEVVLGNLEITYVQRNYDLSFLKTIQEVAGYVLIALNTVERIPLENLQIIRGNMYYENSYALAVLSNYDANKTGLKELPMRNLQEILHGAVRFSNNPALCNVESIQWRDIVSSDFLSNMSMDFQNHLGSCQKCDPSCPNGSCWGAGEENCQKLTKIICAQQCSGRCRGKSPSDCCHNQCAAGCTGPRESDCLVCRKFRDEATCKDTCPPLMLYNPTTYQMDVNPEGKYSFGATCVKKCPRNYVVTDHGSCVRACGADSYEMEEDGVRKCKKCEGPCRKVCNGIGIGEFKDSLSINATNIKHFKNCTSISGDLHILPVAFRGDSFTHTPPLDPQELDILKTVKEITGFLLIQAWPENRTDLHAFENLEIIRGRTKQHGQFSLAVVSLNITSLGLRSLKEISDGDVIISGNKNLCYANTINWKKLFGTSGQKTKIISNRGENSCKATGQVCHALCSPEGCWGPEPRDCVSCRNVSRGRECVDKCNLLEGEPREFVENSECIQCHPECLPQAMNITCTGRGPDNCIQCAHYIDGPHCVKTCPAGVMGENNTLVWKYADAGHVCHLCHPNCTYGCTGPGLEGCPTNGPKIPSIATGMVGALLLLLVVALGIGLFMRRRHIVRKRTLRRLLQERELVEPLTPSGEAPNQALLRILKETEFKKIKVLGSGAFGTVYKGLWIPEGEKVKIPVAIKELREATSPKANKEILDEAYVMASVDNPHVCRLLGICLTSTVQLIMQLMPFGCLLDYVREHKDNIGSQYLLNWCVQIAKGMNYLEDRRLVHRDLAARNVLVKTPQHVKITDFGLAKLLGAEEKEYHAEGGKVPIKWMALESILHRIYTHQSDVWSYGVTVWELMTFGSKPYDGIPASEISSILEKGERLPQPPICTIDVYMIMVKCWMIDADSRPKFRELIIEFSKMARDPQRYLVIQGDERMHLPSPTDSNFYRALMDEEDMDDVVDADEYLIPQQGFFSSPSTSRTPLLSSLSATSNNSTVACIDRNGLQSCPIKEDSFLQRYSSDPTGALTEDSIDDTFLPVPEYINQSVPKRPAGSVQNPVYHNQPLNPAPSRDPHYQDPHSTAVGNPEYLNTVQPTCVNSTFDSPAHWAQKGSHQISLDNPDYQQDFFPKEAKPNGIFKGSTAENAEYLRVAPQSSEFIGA

EGFR (T790M, L858R) (h) = EGFR (T790M, L858R) (h) (Homo sapiens (Human), UniProt P00533, L858R/T790M); assay: as above; format: biochemical; settings: 0.1 μM test compound, 10 μM ATP; remaining activity relative to DMSO control = 100%
Sequence of EGFR (T790M, L858R) (h) (P00533 25-1210 T790M/L858R): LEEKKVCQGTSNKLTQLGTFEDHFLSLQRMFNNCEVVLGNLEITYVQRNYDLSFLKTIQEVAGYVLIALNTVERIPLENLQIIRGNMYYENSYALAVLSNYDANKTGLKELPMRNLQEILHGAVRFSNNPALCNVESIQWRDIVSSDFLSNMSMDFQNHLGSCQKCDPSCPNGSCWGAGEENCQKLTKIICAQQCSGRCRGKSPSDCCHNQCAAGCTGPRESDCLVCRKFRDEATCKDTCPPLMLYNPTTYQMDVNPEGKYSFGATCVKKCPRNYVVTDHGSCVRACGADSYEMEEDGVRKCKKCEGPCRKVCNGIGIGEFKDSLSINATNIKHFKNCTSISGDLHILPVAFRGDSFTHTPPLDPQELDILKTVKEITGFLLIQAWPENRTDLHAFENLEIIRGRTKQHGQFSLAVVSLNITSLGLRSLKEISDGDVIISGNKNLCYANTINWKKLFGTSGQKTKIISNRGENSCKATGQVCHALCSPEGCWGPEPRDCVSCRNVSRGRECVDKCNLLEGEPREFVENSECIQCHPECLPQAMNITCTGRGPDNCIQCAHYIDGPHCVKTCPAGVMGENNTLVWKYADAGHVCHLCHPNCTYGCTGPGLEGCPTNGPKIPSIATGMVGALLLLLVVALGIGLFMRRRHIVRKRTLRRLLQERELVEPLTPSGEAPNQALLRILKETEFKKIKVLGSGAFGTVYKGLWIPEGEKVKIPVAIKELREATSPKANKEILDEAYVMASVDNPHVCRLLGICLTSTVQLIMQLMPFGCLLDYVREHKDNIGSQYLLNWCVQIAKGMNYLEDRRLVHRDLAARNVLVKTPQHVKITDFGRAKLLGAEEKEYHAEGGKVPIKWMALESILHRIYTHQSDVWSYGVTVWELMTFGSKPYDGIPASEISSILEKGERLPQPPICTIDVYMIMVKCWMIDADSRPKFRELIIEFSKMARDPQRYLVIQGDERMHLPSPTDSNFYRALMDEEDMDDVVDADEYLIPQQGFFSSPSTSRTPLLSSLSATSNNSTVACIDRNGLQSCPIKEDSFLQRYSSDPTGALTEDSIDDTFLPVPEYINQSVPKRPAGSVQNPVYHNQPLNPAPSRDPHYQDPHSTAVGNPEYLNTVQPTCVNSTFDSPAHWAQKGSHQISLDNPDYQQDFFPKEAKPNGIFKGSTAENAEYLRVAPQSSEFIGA
Protocol: as §1, §2

[1] = system: H1975 (EGFR L858R/T790M) NSCLC cells; assay: Cell proliferation assay (MTS cell viability); format: cell-based; settings: Homo sapiens, NCI-H1975, 72 h; H1975 cells, 3 days of exposure, MTS
[2] = system: HCC827 (EGFR Del) NSCLC cells; assay: Cell proliferation assay (MTS cell viability); format: cell-based; settings: Homo sapiens, 72 h; HCC827 cells, 3 days of exposure, MTS
Protocol: Effects of test compounds on in vitro proliferation were measured by MTS cell viability assay.
Prepare test compounds in each well with a final medium volume of 200 μl;
Incubate for 3 days of exposure;
Prepare reagents following the instructions in the Cell Proliferation Assay kit (Promega);
Change to serum-free medium with a final volume of 100 l/well. Prepare a set of wells with medium only for background subtraction;
Add 20 μl MTS solution containing PMS to each well (final concentration of MTS will be 0.33 mg/ml);
Incubate 1 to 4 hours at 37° C. in a humidified, 5% CO2 atmosphere.
Record absorbance at 490 nm using VICTOR™ X5 plate reader (PerkinElmer).
All experimental points were set up in three wells and all experiments were repeated at least three times.

Sequence of EGFR (h) (P00533 25-1210): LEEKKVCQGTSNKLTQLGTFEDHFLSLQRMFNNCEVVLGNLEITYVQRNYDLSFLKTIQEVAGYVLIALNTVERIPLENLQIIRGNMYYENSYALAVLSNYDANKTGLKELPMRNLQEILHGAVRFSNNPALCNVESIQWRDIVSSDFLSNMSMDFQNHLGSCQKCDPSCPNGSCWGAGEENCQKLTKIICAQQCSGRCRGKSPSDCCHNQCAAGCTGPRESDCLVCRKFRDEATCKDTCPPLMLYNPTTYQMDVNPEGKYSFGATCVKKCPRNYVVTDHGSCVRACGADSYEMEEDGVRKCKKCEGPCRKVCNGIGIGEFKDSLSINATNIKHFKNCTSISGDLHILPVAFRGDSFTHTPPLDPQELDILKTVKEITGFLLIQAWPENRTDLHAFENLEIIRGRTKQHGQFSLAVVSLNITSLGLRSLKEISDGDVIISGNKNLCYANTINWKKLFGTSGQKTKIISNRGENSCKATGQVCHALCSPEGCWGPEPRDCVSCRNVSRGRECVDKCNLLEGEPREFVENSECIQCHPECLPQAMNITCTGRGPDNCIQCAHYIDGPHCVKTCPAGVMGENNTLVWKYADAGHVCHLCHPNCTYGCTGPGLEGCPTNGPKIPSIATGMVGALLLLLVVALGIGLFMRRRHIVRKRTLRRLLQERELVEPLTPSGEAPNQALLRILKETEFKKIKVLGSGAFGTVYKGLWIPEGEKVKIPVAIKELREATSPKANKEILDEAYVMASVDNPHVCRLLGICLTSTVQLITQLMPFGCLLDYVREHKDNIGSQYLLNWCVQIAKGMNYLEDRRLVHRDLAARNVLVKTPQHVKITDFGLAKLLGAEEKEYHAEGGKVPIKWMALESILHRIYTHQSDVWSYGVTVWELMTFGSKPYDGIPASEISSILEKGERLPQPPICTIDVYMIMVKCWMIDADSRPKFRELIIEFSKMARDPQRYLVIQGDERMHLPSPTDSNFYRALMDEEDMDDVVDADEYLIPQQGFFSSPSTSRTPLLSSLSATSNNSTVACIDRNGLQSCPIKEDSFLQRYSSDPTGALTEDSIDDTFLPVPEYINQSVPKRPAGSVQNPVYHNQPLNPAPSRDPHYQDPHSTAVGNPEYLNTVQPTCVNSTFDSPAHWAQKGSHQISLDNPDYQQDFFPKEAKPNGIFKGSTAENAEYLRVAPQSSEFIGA

Row | Molecule | Activity (control) % EGFR (h) (EGFR (h)) [%] | Activity (control) % ALK (h) (ALK (h)) [%] | Activity (control) % EGFR (L858R) (h) (EGFR (L858R) (h)) [%] | Activity (control) % EGFR (T790M) (h) (EGFR (T790M) (h)) [%] | Activity (control) % EGFR (T790M, L858R) (h) (EGFR (T790M, L858R) (h)) [%] | remaining activity at 0.1 µM (ALK (h); 40 min) [%] | IC50 [1] [µM] | IC50 [2] [µM]
1 | C=CC(=O)Nc1cc(Nc2ncc(Cl)c(Nc3ccccc3C(=O)C(=O)N(C)C)n2)ccc1N1CCN(C)CC1 [Example 111, N-(5-(5-chloro-4-(2-(2-(dimethylamino)-2-oxoactyl)phenylamino)pyrimidin-2-ylamino)-2-(4-methylpiperazin-1-yl)phenyl)acrylamide] | 109 | 8 | 76 | 59 | 11 |  |  | 
2 | C=C(CN1CCOCC1)C(=O)Nc1ccc(OC)c(Nc2ncc(Cl)c(Nc3ccccc3C(=O)C(=O)N(C)C)n2)c1 [Example 41, N-(3-(5-chloro-4-(2-(2-(dimethylamino)-2-oxoacetyl)phenylamino)pyrimidin-2-ylamino)-4-methoxyphenyl)-2-(morpholinomethyl)acrylamide] | 76 |  | 39 | 2 | 3 | 21 |  | 
3 | C=CC(=O)Nc1cc(Nc2ncc(Cl)c(Nc3ccccc3C(=O)C(=O)N(C)CCN(C)C)n2)ccc1OC [Example 102, N-(5-(5-chloro-4-(2-(2-((2-(dimethylamino)ethyl)(methyl)amino)-2-oxoactyl)phenylamino)pyrimidin-2-ylamino)-2-methoxyphenyl)acrylamide] | 98 | 5 | 57 | 40 | 5 |  |  | 
4 | COc1cc(Nc2ncc(Cl)c(Nc3ccccc3C(=O)C(=O)N(C)C)n2)ccc1N1CCN(C(C)=O)CC1 [Example 94, 2-(2-(2-(4-(4-acetylpiperazin-1-yl)-3-methoxyphenylamino)-5-chloropyrimidin-4-ylamino)phenyl)-N,N-dimethyl-2-oxoacetamide] | 100 | 6 | 84 | 45 | 9 |  |  | 
5 | CCOC(=O)C(=O)c1ccccc1Nc1nc(Nc2ccc(N3CCC(N(C)C)CC3)cc2OC)ncc1Cl [Example 1, ethyl 2-(2-(5-chloro-2-(4-(4-(dimethylamino)piperidin-1-yl)-2-methoxyphenylamino)pyrimidin-4-ylamino)phenyl)-2-oxoacetate] |  |  |  |  |  |  | > 3 | > 3
6 | COc1ccc(NC(=O)/C=C/CN2CCCCC2)cc1Nc1ncc(Cl)c(Nc2ccccc2C(=O)C(=O)N(C)C)n1 [Example 72, (E)-N-(3-(5-chloro-4-(2-(2-(dimethylamino)-2-oxoacetyl)phenylamino)pyrimidin-2-ylamino)-4-methoxyphenyl)-4-(piperidin-1-yl)but-2-enamide] | 102 | 14 | 28 | 54 | 9 |  |  | 
7 | CCC(=O)N1CCN(c2ccc(Nc3ncc(Cl)c(Nc4ccccc4C(=O)C(=O)NC)n3)c(OC)c2)CC1 [Example 54, 2-(2-(5-chloro-2-(2-methoxy-4-(4-propionylpiperazin-1-yl)phenylamino)pyrimidin-4-ylamino)phenyl)-N-methyl-2-oxoacetamide] |  |  |  |  |  |  | > 3 | > 3
8 | COc1cc(N2CCC(N(C)C)CC2)ccc1Nc1ncc(Cl)c(Nc2ccccc2C(=O)C(=O)N2CCOCC2)n1 [Example 18, 1-(2-((5-chloro-2-((4-(4-(dimethylamino)piperidin-1-yl)-2-methoxyphenyl)amino)pyrimidin-4-yl)amino)phenyl)-2-morpholinoethane-1,2-dione] |  |  |  |  |  |  | 2.86 | > 3
9 | CCN(CC)C(=O)C(=O)c1ccccc1Nc1nc(Nc2ccc(N3CCN(C)CC3)c(OC)c2)ncc1Cl [Example 130, 2-(2-(5-chloro-2-(3-methoxy-4-(4-methylpiperazin-1-yl)phenylamino)pyrimidin-4-ylamino)phenyl)-N,N-diethyl-2-oxoacetamide] | 113 | 13 | 98 | 84 | 22 |  |  | 
10 | COc1ccc(NC(=O)/C=C/CN2CCOCC2)cc1Nc1ncc(Cl)c(Nc2ccccc2C(=O)C(=O)N(C)C)n1 [Example 79, (E)-N-(3-(5-chloro-4-(2-(2-(dimethylamino)-2-oxoacetyl)phenylamino)pyrimidin-2-ylamino)-4-methoxyphenyl)-4-morpholinobut-2-enamide] | 92 | 7 | 25 | 16 | 2 |  |  | 
11 | C=CC(=O)N1CCC(NC(=O)C(=O)c2ccccc2Nc2nc(Nc3ccc(N4CCN(C)CC4)cc3OC)ncc2Cl)CC1 [Example 56, N-(1-acryloylpiperidin-4-yl)-2-(2-(5-chloro-2-(2-methoxy-4-(4-methylpiperazin-1-yl)phenylamino)pyrimidin-4-ylamino)phenyl)-2-oxoacetamide] |  |  |  |  |  |  | > 3 | > 3
12 | C=CC(=O)N1CCOc2ccc(Nc3ncc(Cl)c(Nc4ccccc4C(=O)C(=O)N(C)C)n3)cc21 [Example 87, 2-(2-(2-(4-acryloyl-3,4-dihydro-2H-benzo[b][1,4]oxazin-6-ylamino)-5-chloropyrimidin-4-ylamino)phenyl)-N,N-dimethyl-2-oxoacetamide] |  | 5 |  |  |  |  |  | 
13 | COc1cc(N2CCN(C)CC2)ccc1Nc1ncc(C(F)(F)F)c(Nc2ccccc2C(=O)C(N)=O)n1 [Example 10, 2-(2-((2-((2-methoxy-4-(4-methylpiperazin-1-yl)phenyl)amino)-5-(trifluoromethyl)pyrimidin-4-yl)amino)phenyl)-2-oxoacetamide] |  |  |  |  |  |  | > 3 | > 3
14 | COc1cc(N2CCC(N(C)C)CC2)ccc1Nc1ncc(Cl)c(Nc2ccccc2C(=O)C(=O)NC2CNC2)n1 [Example 24, N-(azetidin-3-yl)-2-(2-((5-chloro-2-((4-(4-(dimethylamino)piperidin-1-yl)-2-methoxyphenyl)amino)pyrimidin-4-yl)amino)phenyl)-2-oxoacetamide] |  |  |  |  |  |  | > 3 | > 3
15 | COc1cc(N2CCOCC2)ccc1Nc1ncc(Cl)c(Nc2ccccc2C(=O)C(=O)N(C)C)n1 [Example 48, 2-(2-(5-chloro-2-(2-methoxy-4-morpholinophenylamino)pyrimidin-4-ylamino)phenyl)-N,N-dimethyl-2-oxoacetamide] |  |  |  |  |  |  | 1.95 | 1.94
16 | COc1cc(N2CCN(C)CC2)ccc1Nc1ncc(Cl)c(Nc2ccccc2C(=O)C(=O)NC2CC2)n1 [Example 49, 2-(2-(5-chloro-2-(2-methoxy-4-(4-methylpiperazin-1-yl)phenylamino)pyrimidin-4-ylamino)phenyl)-N-cyclopropyl-2-oxoacetamide] |  |  |  |  |  |  | > 3 | > 3
17 | COc1ccc(NC(=O)C=C(C)C)cc1Nc1ncc(Cl)c(Nc2ccccc2C(=O)C(=O)N(C)C)n1 [Example 71, N-(3-(5-chloro-4-(2-(2-(dimethylamino)-2-oxoacetyl)phenylamino)pyrimidin-2-ylamino)-4-methoxyphenyl)-3-methylbut-2-enamide] |  |  |  |  |  |  | 0.99 | 
18 | COc1cc(N2CCC(N(C)C)CC2)ccc1Nc1ncc(Cl)c(Nc2ccccc2C(=O)C(=O)O)n1 [Example 2, 2-(2-(5-chloro-2-(4-(4-(dimethylamino)piperidin-1-yl)-2-methoxyphenylamino)pyrimidin-4-ylamino)phenyl)-2-oxoacetic acid] |  |  |  |  |  |  | > 3 | > 3
19 | C=CC(=O)N1CC(NC(=O)C(=O)c2ccccc2Nc2nc(Nc3ccc(N4CCN(C)CC4)cc3OC)ncc2Cl)C1 [Example 55, N-(1-acryloylazetidin-3-yl)-2-(2-(5-chloro-2-(2-methoxy-4-(4-methylpiperazin-1-yl)phenylamino)pyrimidin-4-ylamino)phenyl)-2-oxoacetamide] |  |  |  |  |  |  | > 3 | > 3
20 | COc1cc(N2CCC(N(C)C)CC2)ccc1Nc1ncc(C(F)(F)F)c(Nc2ccccc2C(=O)C(=O)O)n1 [Example 15, 2-(2-((2-((4-(4-(dimethylamino)piperidin-1-yl)-2-methoxyphenyl)amino)-5-(trifluoromethyl)pyrimidin-4-yl)amino)phenyl)-2-oxoacetic acid] |  |  |  |  |  |  | > 3 | > 3
21 | C=CC(=O)Nc1cccc(Nc2nc(Nc3ccc(N4CCN(C(C)=O)CC4)cc3OC)ncc2C(F)(F)F)c1 [CO-1686, reference compound] | 92 |  | 97 | 21 | 7 |  |  | 
22 | N-(5-(5-chloro-4-(2-(2-(dimethylamino)-2-oxoactyl)phenylamino)pyrimidin-2-ylamino)-2-(2-(dimethylamino)ethoxy)phenyl)acrylamide [Example 115] |  | 6 |  |  |  |  |  | 
23 | COc1cc(N2CCC(N(C)C)CC2)ccc1Nc1ncc(Cl)c(Nc2ccccc2C(=O)C(=O)NC2CC2)n1 [Example 25, 2-(2-((5-chloro-2-((4-(4-(dimethylamino)piperidin-1-yl)-2-methoxyphenyl)amino)pyrimidin-4-yl)amino)phenyl)-N-cyclopropyl-2-oxoacetamide] |  |  |  |  |  |  | > 3 | > 3
